# PMC4876051 (Clinical pharmacokinetics, 2016)
# Like-named read-outs stand apart in the source and are kept apart here.
# Assays:
# [1] = target: T1, MATE1 (Homo sapiens, UniProt Q96FL8); conditions: MATE1 vs OCT2
# [2] = for Maximal concentration of unbound famotidine in plasma ([I], Cmax,u): healthy volunteers n=12, oral famotidine 160 to 200 mg doses
# [3] = test system: creatinine (an endogenous substrate of MATE1); conditions: 12h after famotidine (200 mg) alone vs pre-famotidine
# [4] = test system: creatinine plasma levels; conditions: with famotidine
# [5] = target: plasma membrane monoamine transporter (PMAT, SLC29A4) (Homo sapiens, UniProt Q7RTT9); conditions: Supplemental Fig. 7
# [6] = target: T1, MATE1; conditions: overexpressing cell line; Supplemental Fig. 4
# [7] = target: T2, MATE2 (Homo sapiens, UniProt Q86VL8); conditions: overexpressing cell line; Supplemental Fig. 4
# [8] = target: T3, OCT1 (Homo sapiens, UniProt O15245); conditions: overexpressing cell line; Supplemental Fig. 4
# [9] = target: T4, OCT2 (Homo sapiens, UniProt O15244); conditions: overexpressing cell line; Supplemental Fig. 4
# [10] = clinical; conditions: human, plasma and urine, oral, 200 mg
# [11] = target: T1, MATE1; test: cell-based
# [12] = target: T2, MATE2; test: cell-based
# [13] = target: T3, OCT1; test: cell-based
# [14] = target: T4, OCT2; test: cell-based
# [15] = cited from earlier work
# [16] = cited from earlier work; remark: listed apart in the source
# [17] = Tolerability in the clinical study; conditions: twelve healthy volunteers; famotidine Cmax,u about 1.0 μM
# [18] = test system: plasma glucose; test: Oral glucose tolerance test; parameters: AUCglu,0.5, GMR (90%CI), metformin vs baseline / AUCglu,3, GMR (90%CI), metformin vs baseline: unit not given beside the values
# [19] = cited from earlier work; remark: listed apart in the source
# [20] = clinical; conditions: human
# [21] = population PK model, twelve healthy volunteers
# [22] = glucose AUC 0 to 0.5h after 75 g glucose, n=12
# [23] = glucose AUC 0 to 3h after 75 g glucose, n=12
# [24] = metformin vs baseline (no drug)
# T1 sequence (Q96FL8 whole entry): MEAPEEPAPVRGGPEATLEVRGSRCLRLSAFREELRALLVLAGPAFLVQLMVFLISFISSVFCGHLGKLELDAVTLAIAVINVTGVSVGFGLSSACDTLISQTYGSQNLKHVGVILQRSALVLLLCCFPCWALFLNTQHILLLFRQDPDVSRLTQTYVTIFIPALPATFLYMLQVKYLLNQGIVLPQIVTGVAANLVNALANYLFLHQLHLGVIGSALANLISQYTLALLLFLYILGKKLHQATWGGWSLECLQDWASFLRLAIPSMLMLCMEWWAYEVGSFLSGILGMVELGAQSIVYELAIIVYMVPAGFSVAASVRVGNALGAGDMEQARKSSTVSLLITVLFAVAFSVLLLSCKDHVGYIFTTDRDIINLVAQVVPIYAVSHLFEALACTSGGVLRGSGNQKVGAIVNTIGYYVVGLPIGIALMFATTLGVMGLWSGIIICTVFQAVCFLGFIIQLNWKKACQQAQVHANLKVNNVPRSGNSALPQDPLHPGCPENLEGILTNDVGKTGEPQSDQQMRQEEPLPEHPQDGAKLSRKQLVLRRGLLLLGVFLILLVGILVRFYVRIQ
# T2 sequence (Q86VL8 whole entry): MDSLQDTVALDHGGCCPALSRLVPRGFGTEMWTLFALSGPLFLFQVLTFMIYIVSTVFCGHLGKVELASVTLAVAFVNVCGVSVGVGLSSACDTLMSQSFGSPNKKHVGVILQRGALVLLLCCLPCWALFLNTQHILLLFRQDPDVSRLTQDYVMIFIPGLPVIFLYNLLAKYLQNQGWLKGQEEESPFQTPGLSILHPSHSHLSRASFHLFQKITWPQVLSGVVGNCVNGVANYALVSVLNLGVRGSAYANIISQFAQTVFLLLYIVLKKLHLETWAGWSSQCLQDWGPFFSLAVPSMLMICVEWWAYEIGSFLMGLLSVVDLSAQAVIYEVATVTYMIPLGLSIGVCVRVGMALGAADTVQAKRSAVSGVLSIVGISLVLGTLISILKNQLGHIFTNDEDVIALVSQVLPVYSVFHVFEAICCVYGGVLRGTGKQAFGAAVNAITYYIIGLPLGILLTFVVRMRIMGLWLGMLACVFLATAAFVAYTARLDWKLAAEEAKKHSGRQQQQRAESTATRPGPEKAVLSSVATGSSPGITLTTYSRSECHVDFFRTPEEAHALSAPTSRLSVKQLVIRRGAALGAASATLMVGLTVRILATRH
# T3 sequence (O15245 whole entry): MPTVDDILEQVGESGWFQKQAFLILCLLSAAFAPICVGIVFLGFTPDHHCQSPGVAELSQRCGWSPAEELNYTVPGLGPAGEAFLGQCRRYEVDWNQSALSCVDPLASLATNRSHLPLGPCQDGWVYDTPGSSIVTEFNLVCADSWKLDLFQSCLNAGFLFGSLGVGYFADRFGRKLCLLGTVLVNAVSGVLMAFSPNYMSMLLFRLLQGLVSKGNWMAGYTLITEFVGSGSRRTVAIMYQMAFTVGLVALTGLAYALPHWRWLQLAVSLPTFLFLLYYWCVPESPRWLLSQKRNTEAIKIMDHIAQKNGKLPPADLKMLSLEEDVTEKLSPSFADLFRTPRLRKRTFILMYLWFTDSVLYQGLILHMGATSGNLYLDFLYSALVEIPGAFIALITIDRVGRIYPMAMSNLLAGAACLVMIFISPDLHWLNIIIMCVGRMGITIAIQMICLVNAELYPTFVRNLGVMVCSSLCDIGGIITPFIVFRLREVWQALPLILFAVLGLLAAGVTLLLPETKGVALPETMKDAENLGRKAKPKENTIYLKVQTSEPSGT
# T4 sequence (O15244 whole entry): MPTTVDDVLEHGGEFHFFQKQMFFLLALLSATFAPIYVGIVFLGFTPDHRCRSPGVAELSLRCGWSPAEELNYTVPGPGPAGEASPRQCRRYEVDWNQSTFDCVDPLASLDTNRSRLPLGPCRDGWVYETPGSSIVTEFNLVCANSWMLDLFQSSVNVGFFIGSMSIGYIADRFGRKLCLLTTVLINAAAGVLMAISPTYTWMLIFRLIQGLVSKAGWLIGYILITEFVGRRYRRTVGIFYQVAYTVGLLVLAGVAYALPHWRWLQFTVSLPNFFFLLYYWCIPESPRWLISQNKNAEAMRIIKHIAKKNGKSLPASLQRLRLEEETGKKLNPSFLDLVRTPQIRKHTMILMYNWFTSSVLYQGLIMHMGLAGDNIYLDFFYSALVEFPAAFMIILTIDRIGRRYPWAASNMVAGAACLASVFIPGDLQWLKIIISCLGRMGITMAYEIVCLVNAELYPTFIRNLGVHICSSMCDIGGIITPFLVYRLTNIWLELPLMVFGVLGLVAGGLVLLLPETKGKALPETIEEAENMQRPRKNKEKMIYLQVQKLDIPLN
# Chain of plasma membrane monoamine transporter (PMAT, SLC29A4) (Q7RTT9 whole entry): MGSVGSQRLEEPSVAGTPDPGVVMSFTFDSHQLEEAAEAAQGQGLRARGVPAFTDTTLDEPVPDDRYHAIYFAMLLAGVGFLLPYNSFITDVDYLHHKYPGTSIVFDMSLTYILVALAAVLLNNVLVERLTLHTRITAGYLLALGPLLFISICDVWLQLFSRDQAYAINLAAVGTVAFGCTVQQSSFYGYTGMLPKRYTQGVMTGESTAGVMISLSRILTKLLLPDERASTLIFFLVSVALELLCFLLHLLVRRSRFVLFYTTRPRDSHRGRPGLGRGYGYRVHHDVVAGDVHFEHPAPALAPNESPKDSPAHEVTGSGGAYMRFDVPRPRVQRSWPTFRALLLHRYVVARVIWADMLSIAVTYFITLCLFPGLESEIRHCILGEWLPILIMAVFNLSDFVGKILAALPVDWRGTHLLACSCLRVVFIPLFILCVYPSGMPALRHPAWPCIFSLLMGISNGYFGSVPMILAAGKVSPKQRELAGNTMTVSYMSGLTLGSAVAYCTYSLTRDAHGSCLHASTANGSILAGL
smiles,measurement,setting,value
"NC(N)=Nc1nc(CSCCC(N)=NS(N)(=O)=O)cs1 [Famotidine, famotidine]",Selectivity of inhibition of metformin transport for MATE1 over OCT2,[1],over 200 fold
same,"Maximal concentration of unbound famotidine in plasma ([I], Cmax,u)",[2],1000 nM
same,"Maximal concentration of unbound famotidine in plasma ([I], Cmax,u)",[2]; listed as famotidine,1000 ± 64 nM
same,BSV-CL (between subject variability),"[2]; population PK model, (R.S.E)",6.4% (25%)
same,BSV-F (between subject variability),"[2]; population PK model, (R.S.E)",26% (53%)
same,BSV-Lagtime (between subject variability),"[2]; population PK model, (R.S.E)",77% (99%)
same,"CL/F, population estimate (R.S.E)",[2]; [21],116 (7.2%) L/h
same,"Lag time, population estimate (R.S.E)",[2]; [21],0.27 (32%) h
same,"V/F, population estimate (R.S.E)",[2]; [21],715 (6.0%) L
same,"ka, population estimate (R.S.E)",[2]; [21],1.14 (11%) h^−1
same,Creatinine concentrations in plasma,[3],significantly higher
same,"BSV-Baseline, creatinine model (R.S.E.)",[4],18 (19%)
same,"BSV-Phase Shift, creatinine model (R.S.E.)",[4],2.7 (89%)
same,"Creatinine plasma Amplitude 1, typical value (R.S.E.)",[4]; diurnal rhythm model,1.15 (49%) mg/L
same,"Creatinine plasma Phase Shift 1, typical value (R.S.E.)",[4]; diurnal rhythm model,2.37 (2.6%) mg/L
same,"Creatinine plasma Baseline, typical value (R.S.E.)",[4]; twelve healthy volunteers,8.07 (5.5%) mg/L
same,Inhibition of metformin transport by PMAT,[5],potent inhibitor
same,Substrate of MATE1,[6],unequivocal substrate
same,Substrate of MATE2,[7],unequivocal substrate
same,Substrate of OCT1,[8],unequivocal substrate
same,Substrate of OCT2,[9],unequivocal substrate
same,CL renal,[10],290 ± 32 mL/min
same,IC50,[11],0.25 µM
same,IC50,[12],2.5 µM
same,IC50,[13],19 µM
same,IC50,[14],66 µM
same,Bound to plasma proteins,[15],approximately 20%
same,Eliminated by metabolic route,[16],30–35%
same,Eliminated by renal route,[16],65–70%
same,Tolerability during co-administration with metformin,[17],well tolerated
same,Effect of famotidine alone on glucose AUC,"[18]; OGTT, data not shown",no significant effect
"CN(C)C(=N)N=C(N)N [Metformin, metformin]",Ionized in blood and in urine at physiologic pH,[19],> 99%
same,CL renal,"[20]; plasma and urine, oral",767 ± 70 mL/min
same,AUC(0-inf),"[20]; plasma, oral",14600 ng·h/mL
same,Tmax,"[20]; plasma, po, 1850 mg",2 ± 0.24 h
same,"AUCglu,0.5, mean ± SEM",[18]; [22],55 ± 1.5 mg·h/dL
same,"AUCglu,0.5, median",[18]; [22],55 mg·h/dL
same,"AUCglu,3, mean ± SEM",[18]; [23],356 ± 14 mg·h/dL
same,"AUCglu,3, median",[18]; [23],343 mg·h/dL
same,"AUCglu,0.5, GMR (90%CI), metformin vs baseline",[18]; [24],0.94 (0.90–0.98)
same,"AUCglu,3, GMR (90%CI), metformin vs baseline",[18]; [24],0.99 (0.94–1.04)
same,"AUCglu,0.5, GMR (90%CI), metformin vs baseline","[18]; metformin vs baseline (no drug), listed as metformin",0.94 [0.90–0.98]
